Tested on: 186277-243-T-J2-PDC complex spheroid growth
Experiment: Anticancer human tumor 186277-243-T-J2-PDC patient-derived colon adenocarcinoma cell line growth inhibition [AhR]
Details: for IC50: curve of first compound; for viability, T/C: stronger effect = lower value
Method in brief: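 Spheroids combined tumor cells with HUVEC endothelial cells and human MSCs as stroma. AhR antagonists were paired with standard or investigational drugs, each dosed in half-log steps down from near clinical Cmax, or from 10 microM where Cmax was unknown.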

[1] = second compound 0.1 µM, first compound 0.0316 µM
[2] = second compound 0.1 µM, first compound 0.1 µM
[3] = second compound 0.1 µM, first compound 0.316 µM
[4] = second compound 0.1 µM, first compound 1 µM
[5] = second compound 0.1 µM, first compound 3.16 µM
[6] = second compound 0.1 µM, first compound 10 µM
[7] = second compound 0.316 µM, first compound 0.0316 µM
[8] = second compound 0.316 µM, first compound 0.1 µM
[9] = second compound 0.316 µM, first compound 0.316 µM
[10] = second compound 0.316 µM, first compound 1 µM
[11] = second compound 0.316 µM, first compound 3.16 µM
[12] = second compound 0.316 µM, first compound 10 µM
[13] = second compound 1 µM, first compound 0.0316 µM
[14] = second compound 1 µM, first compound 0.1 µM
[15] = second compound 1 µM, first compound 0.316 µM
[16] = second compound 1 µM, first compound 1 µM
[17] = second compound 1 µM, first compound 3.16 µM
[18] = second compound 1 µM, first compound 10 µM
[19] = second compound 3.16 µM, first compound 0.0316 µM
[20] = second compound 3.16 µM, first compound 0.1 µM
[21] = second compound 3.16 µM, first compound 0.316 µM
[22] = second compound 3.16 µM, first compound 1 µM
[23] = second compound 3.16 µM, first compound 3.16 µM
[24] = second compound 3.16 µM, first compound 10 µM
[25] = second compound 10 µM, first compound 0.0316 µM
[26] = second compound 10 µM, first compound 0.1 µM
[27] = second compound 10 µM, first compound 0.316 µM
[28] = second compound 10 µM, first compound 1 µM
[29] = second compound 10 µM, first compound 3.16 µM
[30] = second compound 10 µM, first compound 10 µM
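Also: spheroids exposed to compounds for seven days before the viability read.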
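For viability, T/C in this document: luminescent signal used as a stand-in for viable cell amount; 100% = DMSO vehicle control wells.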

Structure (SMILES) | IC50 (second compound 0.1 µM) [µM] | IC50 (second compound 0.316 µM) [µM] | IC50 (second compound 1 µM) [µM] | IC50 (second compound 3.16 µM) [µM] | IC50 (second compound 10 µM) [µM] | viability, T/C [1] [%] | viability, T/C [2] [%] | viability, T/C [3] [%] | viability, T/C [4] [%] | viability, T/C [5] [%] | viability, T/C [6] [%] | viability, T/C [7] [%] | viability, T/C [8] [%] | viability, T/C [9] [%] | viability, T/C [10] [%] | viability, T/C [11] [%] | viability, T/C [12] [%] | viability, T/C [13] [%] | viability, T/C [14] [%] | viability, T/C [15] [%] | also measured
Nc1ccn(C2OC(CO)C(O)C2(F)F)c(=O)n1 (stereo not given) + Cc1ccccc1N=Nc1ccc(NC(=O)c2ccnn2C)c(C)c1 | < 0.0316 | < 0.0316 | < 0.0316 | < 0.0316 | < 0.0316 | 16.6 | 15.3 | 14.9 | 16.3 | 18.7 | 17.1 | 14.9 | 14.5 | 16.5 | 18 | 17.4 | 17.4 | 16 | 16 | 16.4 | viability, T/C [16]: 17%; viability, T/C [17]: 18.3%; viability, T/C [18]: 19.4%; viability, T/C [19]: 14.6%; viability, T/C [20]: 13%; viability, T/C [21]: 15.7%; viability, T/C [22]: 15.3%; viability, T/C [23]: 17.1%; viability, T/C [24]: 17.1%; viability, T/C [25]: 16%; viability, T/C [26]: 15.9%; viability, T/C [27]: 16.6%; viability, T/C [28]: 17.8%; viability, T/C [29]: 18%; viability, T/C [30]: 18.8%
COc1cc(Nc2ncc3c(n2)-c2ccc(Cl)cc2C(c2c(F)cccc2OC)=NC3)ccc1C(=O)O + Cc1ccccc1N=Nc1ccc(NC(=O)c2ccnn2C)c(C)c1 | > 10 | > 10 | > 10 | > 10 | > 10 | 132 | 125 | 117 | 107 | 115 | 120 | 134 | 119 | 114 | 108 | 101 | 117 | 130 | 123 | 114 | viability, T/C [16]: 107%; viability, T/C [17]: 107%; viability, T/C [18]: 117%; viability, T/C [19]: 133%; viability, T/C [20]: 118%; viability, T/C [21]: 110%; viability, T/C [22]: 103%; viability, T/C [23]: 106%; viability, T/C [24]: 114%; viability, T/C [25]: 108%; viability, T/C [26]: 104%; viability, T/C [27]: 105%; viability, T/C [28]: 96.5%; viability, T/C [29]: 93.3%; viability, T/C [30]: 102%
COc1ccc([C@@H](O)c2cc(-c3ncnc4cc(N5CCOCC5)ccc34)c(F)cc2Cl)nn1 + Cc1cncc(-c2nc(NCCc3c[nH]c4ccccc34)c3ncn(C(C)C)c3n2)c1 | > 10 | > 10 | > 10 | > 10 | < 0.0316 | 103 | 102 | 104 | 116 | 94.2 | 66.2 | 109 | 102 | 98.3 | 104 | 114 | 64.4 | 103 | 103 | 113 | viability, T/C [16]: 113%; viability, T/C [17]: 99.4%; viability, T/C [18]: 68.7%; viability, T/C [19]: 94%; viability, T/C [20]: 107%; viability, T/C [21]: 115%; viability, T/C [22]: 106%; viability, T/C [23]: 101%; viability, T/C [24]: 55.7%; viability, T/C [25]: 23.3%; viability, T/C [26]: 21.7%; viability, T/C [27]: 20.6%; viability, T/C [28]: 26%; viability, T/C [29]: 16.6%; viability, T/C [30]: 13.2%
